Target: T1, renin (Homo sapiens, UniProt P00797)
T1 sequence (P00797 67-406): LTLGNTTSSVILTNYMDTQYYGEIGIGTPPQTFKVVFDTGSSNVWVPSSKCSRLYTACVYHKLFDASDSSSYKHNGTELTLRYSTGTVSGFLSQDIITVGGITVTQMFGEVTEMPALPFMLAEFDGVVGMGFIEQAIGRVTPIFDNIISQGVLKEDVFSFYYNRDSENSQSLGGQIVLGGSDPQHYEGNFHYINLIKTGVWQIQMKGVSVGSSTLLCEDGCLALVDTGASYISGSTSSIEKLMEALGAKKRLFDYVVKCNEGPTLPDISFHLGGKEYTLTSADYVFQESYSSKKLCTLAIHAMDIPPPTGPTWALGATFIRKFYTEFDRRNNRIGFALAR
Test: in vitro renin inhibitory activity, radioimmunoassay for angiotensin I
Assay type: biochemical
Conditions: renin incubated two hours at 37° with angiotensinogen; for IC50: read-out: IC50 (molar concentration of test compound causing a 50% inhibition of the renin activity)
Protocol: The effectiveness of the aforementioned compound is determined by a test for in vitro renin inhibitory activity. This activity is determined by a standard radioimmunoassay for angiotensin I. In this assay the enzyme, renin, incubated for two hours at 37° in the presence of a substrate, angiotensinogen, generates the product, angiotensin I. Test compounds are added to the incubation mixture. Relative activity is reported as the IC50, which is the molar concentration of test compound causing a 50% inhibition of the renin activity. Relative activity is also reported as % inhibition at 10^-6 M,

| IC50 | inhibition at 1 µM (10^-6 M test compound) | SMILES |
| --- | --- | --- |
| 83 nM |  | CC[C@H](C)CNC(=O)C[C@H](O)[C@H](CC(C)C)NC(=O)[C@H](CCCCNC(=O)CNC(=O)OCc1ccccc1)NC(=O)C(Cc1cccc2ccccc12)Cc1cccc2ccccc12 [Example 8] |
| 710 nM |  | CC[C@H](C)CNC(=O)C[C@H](O)[C@H](CC(C)C)NC(=O)[C@H](CCCCNC(=O)CN)NC(=O)C(Cc1cccc2ccccc12)Cc1cccc2ccccc12 [Example 9] |
| 80 nM |  | CC[C@H](C)CNC(=O)C[C@H](O)[C@H](CC(C)C)NC(=O)[C@H](CCCCNC(=O)CNC(=S)NC)NC(=O)C(Cc1cccc2ccccc12)Cc1cccc2ccccc12 [Example 10] |
| 25 nM |  | CC[C@H](C)CNC(=O)C[C@H](O)[C@H](CC(C)C)NC(=O)[C@H](CCCCNC(=O)CCNC(C)=O)NC(=O)C(Cc1cccc2ccccc12)Cc1cccc2ccccc12 [Example 16] |
| 74 nM |  | CC[C@H](C)CNC(=O)C[C@H](O)[C@H](CC(C)C)NC(=O)[C@H](CCCCNC(=O)CNC(=O)C(C)C)NC(=O)C(Cc1cccc2ccccc12)Cc1cccc2ccccc12 [Example 17] |
| 62 nM |  | CC[C@H](C)CNC(=O)C[C@H](O)[C@H](CC(C)C)NC(=O)[C@H](CCCCNC(=O)CNC(=O)C(F)F)NC(=O)C(Cc1cccc2ccccc12)Cc1cccc2ccccc12 [Example 18] |
| 8 nM |  | CC[C@H](C)CNC(=O)C[C@H](O)[C@H](CC(C)C)NC(=O)[C@H](CCCCNC(=O)CNC(N)=N[N+](=O)[O-])NC(=O)C(Cc1cccc2ccccc12)Cc1cccc2ccccc12 [Example 19] |
| 30 nM |  | CC[C@H](C)CNC(=O)C[C@H](O)[C@H](CC(C)C)NC(=O)[C@H](CCCCNC(=O)CNC(=NC#N)NC)NC(=O)C(Cc1cccc2ccccc12)Cc1cccc2ccccc12 [Example 20] |

Continued, molecule first:

| SMILES | IC50 | inhibition at 1 µM (10^-6 M test compound) |
| --- | --- | --- |
| CC[C@H](C)CNC(=O)C[C@H](O)[C@H](CC(C)C)NC(=O)[C@H](CCC(=O)NCC(=S)NC)NC(=O)C(Cc1cccc2ccccc12)Cc1cccc2ccccc12 [Example 1] | 9000 nM |  |
| CC[C@H](C)CNC(=O)C[C@H](O)[C@H](CC(C)C)NC(=O)[C@H](CCC(=O)NCC(=O)NC)NC(=O)C(Cc1cccc2ccccc12)Cc1cccc2ccccc12 [Example 2] | 15000 nM |  |
| COC(=O)[C@H](CCS(C)(=O)=O)NC(=O)C[C@H](NC(=O)C(Cc1cccc2ccccc12)Cc1cccc2ccccc12)C(=O)N[C@@H](CC1CCCCC1)[C@@H](O)CC(=O)N[C@@H](CC(C)C)C(=O)NCc1ccccc1 [Example 3] | 3500 nM |  |
| CNC(=S)CNC(=O)C[C@H](NC(=O)C(Cc1cccc2ccccc12)Cc1cccc2ccccc12)C(=O)N[C@@H](CC1CCCCC1)[C@@H](O)CC(=O)N[C@@H](CC(C)C)C(=O)NCc1ccccc1 [Example 5] | 240 nM |  |
| CNC(=O)CCNC(=O)C[C@H](NC(=O)C(Cc1cccc2ccccc12)Cc1cccc2ccccc12)C(=O)N[C@@H](CC1CCCCC1)[C@@H](O)CC(=O)N[C@@H](CC(C)C)C(=O)NCc1ccccc1 [Example 6] |  | 47% |
| CC[C@H](C)CNC(=O)C[C@H](O)[C@H](CC1CCCCC1)NC(=O)[C@H](CCCCNC(=O)CNC(C)=O)NC(=O)C(Cc1cccc2ccccc12)Cc1cccc2ccccc12 [Example 12] | 27 nM |  |
| CC[C@H](C)CNC(=O)C[C@H](O)[C@H](CC(C)C)NC(=O)[C@H](CCCCNC(=O)[C@@H]1CSCN1C(C)=O)NC(=O)C(Cc1cccc2ccccc12)Cc1cccc2ccccc12 [Example 13] | 1100 nM |  |
| CC[C@H](C)CNC(=O)C[C@H](O)[C@H](CC(C)C)NC(=O)[C@H](CCCCNC(=O)[C@@H]1CS(=O)(=O)CN1C(C)=O)NC(=O)C(Cc1cccc2ccccc12)Cc1cccc2ccccc12 [Example 14] | 470 nM |  |
| CC[C@H](C)CNC(=O)C[C@H](O)[C@H](CC(C)C)NC(=O)[C@H](CCCCNC(=O)[C@@H]1CCC(=O)N1)NC(=O)C(Cc1cccc2ccccc12)Cc1cccc2ccccc12 [Example 15] | 43 nM |  |

Reference: patent publication US5034512A, “Branched backbone renin inhibitors” (Warner-Lambert Company, priority 1988, dated 1991)
